# Source: US11000555B2, “Method for preparing a limax compound and therapeutic use thereof” (GUANGXI JIUFU BIOTECHNOLOGY CO., LTD, priority 2017, dated 2021)
# Marks after values point to notes of the source that are not given here.
# Experiments:
# mice [1] = experiment: Morphine-induced hyperexcitability test of mice; type: in vivo, Kunming mice
# mice [2] = experiment: Physical dependence test: induced withdrawal test for the mice; details: mouse, in vivo
# Procedure: The daily doses were 25, 50, 75, 100, 125, 150 mg/kg according to the dose increasing principle, increased day by day, reached 150 mg/kg on day 6 which was adopted the same on day 7. The compound group was administered (ig) twice daily (8:00 am, 8:00 pm) at daily doses of 0.6, 1.2, 1.8, 2.4, 3.0, 3.6 g/kg. The dose increased every day from 0.6 g/kg to 3.6 g/kg on day 6 which was adopted the same on day 7. The negative control group was given (ig) the same volume of vegetable oil every day at the same time and for the same times as the compound group. On day 7, naloxone (8 mg/kg, ip) was given to each group of mice to induce withdrawal. The jump reaction within 30 min and weight change one hour before and after inducement were observed. Weight loss value=weight before inducement−weight after inducement.
# Solubility = type: physicochemical
structure (smiles),measurement,setting,value
"CC1(C)O[C@H]2CC[C@@]3(C)[C@@H]([C@@H](O)[C@H](O)[C@@H]3[C@@](C)(O)CC[C@@H]3OC(C)(C)[C@H]4CC[C@]3(C)O4)[C@]2(C)CC[C@H]1O [the compound, limaxol A]",Effect on excitability induced by morphine,"mice [1]; 0.4, 0.8 g/kg, ig",inhibit the increase of excitability induced by morphine and amphetamine
same,"Number of activities, morphine-induced excitability","mice [1]; After administration, high dose 0.8 g/kg ig, morphine 10 mg/kg",112.7 ± 23.04**^Δ▴▴ Times per min
same,"Number of activities, morphine-induced excitability","mice [1]; After administration, low dose 0.4 g/kg ig, morphine 10 mg/kg",102.0 ± 46.29**^Δ▴ Times per min
same,"Number of activities, morphine-induced excitability","mice [1]; Before administration, high dose group",185.4 ± 36.93 Times per min
same,"Number of activities, morphine-induced excitability","mice [1]; Before administration, low dose group",191.5 ± 35.53 Times per min
same,Behaviour of mice after administration,mice [2],quiet without tail erecting reaction or excitatory movement
same,"Withdrawal symptoms after administration of the compound, mice",mice [2],no obvious withdrawal symptoms
same,solubility,Solubility; in acid and alkali,insoluble
same,solubility,"Solubility; in ethanol, ethyl acetate, trichloromethane (hot)",soluble
same,solubility,"Solubility; in methanol, acetone",easily soluble
same,solubility,Solubility; in trichloromethane (cold),slightly soluble
same,solubility,Solubility; in water,insoluble
